According to ChEMBL document CHEMBL1122611, “Synthesis and in vitro biological evaluation of N-[(5-amino-1-beta-D-ribofuranosyl-1H-imidazol-4-yl)carbonyl]-3- (hydroxynitrosamino)-L-alanine (L-alanosine AICO ribonucleoside)” (1984):

Legend:
[1] = Evaluation of inhibitory activity against adenylosuccinate synthetase
HL-60 = experiment: In vitro evaluation of inhibitory activity of HL60 human promyelocytic tumor cell; format: functional; settings: read-out: ED50 (the source's name)
[2] = Evaluation of inhibitory activity of adenylosuccinate synthetase

N[C@@H](CN(O)N=O)C(=O)O [LALANOSINE]
ED50 [1]: 7000 µM | EC50 (HL-60): 2 µM

Nc1c(C(=O)NC(CN(O)N=O)C(=O)O)ncn1[C@@H]1O[C@H](CO)[C@@H](O)[C@H]1O (stereo not given in full)
ED50 [2]: 0.3 µM | ED50 [1]: > 1000 µM | EC50 (HL-60): > 100 µM
